Structures can show the parent of a compound that is named as a salt. Marks after values point to notes of the source that are not given here.
Assays:
[1] = conventional release preparations; cited from earlier work
[2] = tested on: mice exposed to marbles (marble burying); test: Marble Burying Test in mouse; assay type: in vivo; conditions: for Number of marbles buried (% change from ctrl): 30 min before test; for antidepressant and anxiolytic activity (in words): ip
From the text: Nefopam and (+)-nefopam have been evaluated in the Marble Burying Test, a model which detects anxiolytic/tranquillizing activity. The method follows that described by Broekkamp et al. (1986—Eur. J. Pharmacol., 126, 223-229). Mice exposed to novel object (marbles) will bury them in the sawdust floor covering. Anxiolytics decrease the number of marbles buried at non-sedative doses.
Mice are individually placed in transparent plastic cages (33×21×18 cm) with 5 cm of sawdust on the floor, and 25 marbles grouped in the centre of the cage. The cage is covered with an inverted plastic cage. Each test cage, together with the marbles, is impregnated with mouse odor beforehand, by leaving 10 mice in the cage for 15 minutes. These mice then play no further role in the experiment. The number of marbles covered by sawdust (⅔ or more) is counted at the end of a 30 minute test.
All compounds were administered i.p. 30 minutes before the test, and compared with a vehicle control group. Clobazam (8 mg/kg i.p.), administered under the same experimental conditions, was used as reference substance.

[3] = tested on: mice forced to swim (duration of immobility); test: Behavioural Despair Test in mouse; assay type: in vivo; conditions: for Duration of Immobility (% change from ctrl): 30 min before test; for anti-depressant activity (in words): ip
Experimental: Nefopam and (+)-nefopam have been evaluated in the Behavioural Despair Test, a model which detects antidepressant activity. This test was conducted according to the method of Porsolt et al., (1977—Arch. Int. Pharmacodyn., 229:327-336), in which mice are forced to swim in a situation from which they cannot escape rapidly become immobile. Antidepressants decrease the duration of immobility.
Mice (20-27 g male Rj: NMRI) were individually placed in a cylinder (height=24 cm, diameter=13 cm) containing 10 cm water (22° C.) from which they cannot escape. The mice were placed in the water for 6 minutes and the duration of immobility during the last 4 minutes was measured. All compounds were administered i.p. 30 minutes before the test, and compared with a vehicle control group. Imipramine (32 mg/kg i.p.), administered under the same experimental conditions, was used as reference substance.

[4] = tested on: formalin-induced paw licking model in mice; test: Formalin-induced hyperalgesia (paw licking) in mouse; assay type: in vivo; conditions: for Nociception, hindpaw licking time, early phase: early phase (0-5 min after formalin); for Nociception, hindpaw licking time, early phase / Nociception, hindpaw licking time, late phase: 60 min before formalin, vs vehicle; for licking behaviour compared to vehicle control, first phase (in words): first phase (acute nociceptive pain), at both 60 and 100 mg/kg; for Nociception, hindpaw licking time, late phase: late phase (20-30 min after formalin); for paw licking time compared to vehicle control (in words): po, both phases; for licking behaviour, second phase (in words): second phase (persistent pain states), 100 mg/kg
Experimental: Nefopam and (+)-nefopam have been evaluated in the formalin-induced paw licking model in mice. […] The late phase seems to be an inflammatory response and is a recognized model of persistent pain. This test may, therefore, be a useful indicator of analgesic efficacy in fibromyalgia. Compounds were evaluated for both an early stage response and a late stage response and compared against morphine as control.
Inflammation was induced by subplantar injection of a 5% formalin solution (0.02 ml) into the mouse right hindpaw (20-25 g male Rj: NMRI). Hindpaw licking time was continuously recorded in a blinded fashion between 0 to 5 minutes (early phase) and between 20 to 30 minutes (late phase) after formalin injection (Hunskaar etal., 1985—J. Neurosci. Methods; 14:69-76).
The test substances and vehicle were orally administered 60 min before formalin injection.

SMILES | Number of marbles buried (% change from ctrl) ([2]; 10 mg/kg ip) | Number of marbles buried (% change from ctrl) ([2]; 20 mg/kg ip) | Number of marbles buried (% change from ctrl) ([2]; 40 mg/kg ip) | antidepressant and anxiolytic activity (in words) [2] | Duration of Immobility (% change from ctrl) ([3]; 20 mg/kg ip) | Duration of Immobility (% change from ctrl) ([3]; 40 mg/kg ip) | Duration of Immobility (% change from ctrl) ([3]; 60 mg/kg ip) | anti-depressant activity (in words) [3] | Nociception, hindpaw licking time, early phase ([4]; 30 mg/kg po) [%] | Nociception, hindpaw licking time, early phase ([4]; 60 mg/kg po) [%*] | Nociception, hindpaw licking time, early phase ([4]; 100 mg/kg po) [%*] | licking behaviour compared to vehicle control, first phase (in words) [4] | Nociception, hindpaw licking time, late phase ([4]; 30 mg/kg po) [%] | Nociception, hindpaw licking time, late phase ([4]; 60 mg/kg po) | Nociception, hindpaw licking time, late phase ([4]; 100 mg/kg po) [%*] | paw licking time compared to vehicle control (in words) [4] | licking behaviour, second phase (in words) [4] | other results
CN1CCOC(c2ccccc2)c2ccccc2C1 (racemic) [Nefopam, 5-methyl-1-phenyl-3,4,5,6-tetrahydro-1H-2,5-benzoxazocine hydrochloride] | −66 * % change from ctrl | −98 * % change from ctrl | −100 * % change from ctrl | significant antidepressant and anxiolytic activity | −42 | −85 * % change from ctrl | −100 * % change from ctrl | significant anti-depressant activity | −28 | −64 | −85 | significant reduction in licking behaviour | −41 | −63%* | −89 | dose-dependently decreased paw licking time | significant reduction in licking behaviour | elimination half-life [1]: four
CN1CCO[C@@H](c2ccccc2)c2ccccc2C1 [(+)-Nefopam] | −56 * % change from ctrl | −99 * % change from ctrl | −100 * % change from ctrl | significant antidepressant and anxiolytic activity | −38 | −92 * % change from ctrl | −100 * % change from ctrl | significant anti-depressant activity | −40 | −59 | −86 | significant reduction in licking behaviour | −31 | −69% | −90 | dose-dependently decreased paw licking time | significant reduction in licking behaviour | –
CN1C(=O)CC(=O)N(c2ccccc2)c2cc(Cl)ccc21 [Clobazam] | – | – | – | – | – | – | – | – | – | – | – | – | – | – | – | – | – | Number of marbles buried (% change from ctrl) ([2]; 32 mg/kg ip): −75 * % change from ctrl
CN(C)CCCN1c2ccccc2CCc2ccccc21 [Imipramine] | – | – | – | – | – | – | – | – | – | – | – | – | – | – | – | – | – | Duration of Immobility (% change from ctrl) ([3]; 32 mg/kg ip): −80 * % change from ctrl
CN1CC[C@]23c4c5ccc(O)c4O[C@H]2[C@@H](O)C=C[C@H]3[C@H]1C5 [Morphine] | – | – | – | – | – | – | – | – | – | – | – | – | – | – | – | – | – | Nociception, hindpaw licking time, early phase ([4]; 80 mg/kg po): −98%*; Nociception, hindpaw licking time, late phase ([4]; 80 mg/kg po): −98%*

— patent US20080255079A1, “Therapeutic Use of Nefopam and Analogues Thereof” (priority 2005, published 2008)
